Test results as given in patent publication US20060183786A1, “Injectable long-acting analgesic composition comprising an ester derivative of ketorolac” (CHI MEI FOUNDATION HOSPITAL, priority 2005, published 2006).
Converted amounts (≈) assume the structure as drawn. One block for each compound: values may come before it.

Tests used:
[1] = parenteral, n>20,000; cited from earlier work
Solubility in sesame oil = format: physicochemical
[2] = cited from earlier work
[3] = test system: rats intraplantarly injected with carrageenin; assay: Paw swelling (paw thickness), anti-inflammatory effect after intramuscular injection; format: in vivo, Sprague-Dawley rats
Experimental: Louis, Mo., USA) was injected subcutaneously into the plantar space of the right hind paw of all rats. Intraplantar injections were made with a Hamilton syringe and a 30-gauge hypodermic needle. The needle was inserted into the pad region of the glabrous skin and moved 6-8 mm proximal toward the tarsal region. • (5) Measurements of the pain threshold values of rat paw: Paw pressure test was conducted using the TSE Analgesia System (TSE Technical & Scientific Equipment GmbH; Bad Homburg, Germany). […] Paw thickness was measured immediately prior to and following carrageenin injection. […] A two-way analysis of variance with one-way repeated method was used to compare the differences between groups. The Bonferroni test was used as a post-hoc test to compare the differences between the medication groups and the vehicle group at each time point. […] (“*” means P<0.05 whereas “+” means P<0.01 when compared with the vehicle group). The two-way analysis of variance with one-way repeated method is a powerful statistical method which can be used to evaluate the differences among groups. […] In order to keep a similar condition of carrageenin-induced paw edema and pain at each testing day, this 4-day study was accomplished by conducting four one-day studies consecutively (i.e. from day 1 to day 4). All rats received only one intramuscular injection of either ketorolac propyl ester (80, 160, or 240 μmole/Kg, prepared in sesame oil) or the vehicle (sesame oil only) at the start of study (day 1) and then (1 minute later) received intraplantar injection of carrageenin at either day 1, 2, 3, or day 4. Each rat received only one injection of carrageenin. […] A three-way analysis of variance with one-way repeated method was used to compare the differences between groups. The Bonferroni test was used as a post-hoc test to compare the differences between the medication groups and the vehicle group at each time point. […] (“*” means P<0.05 whereas “+” means P<0.01 when compared with the vehicle group). The three-way analysis of variance with one-way repeated method is a powerful statistical method which can be used to evaluate the differences among groups. […] A 4-day study was carried out. […] All rats received only one intramuscular injection of a tested analgesic drug (ketorolac or a ketorolac ester derivative, prepared in sesame oil) or the vehicle (sesame oil only) at the start of study (day 1) and then received intraplantar injection of carrageenin at either day 1, 2, 3, or day 4. Each rat received only one injection of carrageenin. […] All rats received only one intramuscular injection of either a tested analgesic drug (ketorolac propyl ester prepared in four different oils) or the vehicle (4 different oils) at the start of study (day 1) and then received intraplantar injection of carrageenin at either day 1, 2, 3, or day 4. Each rat received only one injection of carrageenin.

[4] = test system: rats intraplantarly injected with carrageenin; assay: Paw pressure test (pain threshold of paw), analgesic effect after intramuscular injection; format: in vivo, Sprague-Dawley rats
Experimental: Louis, Mo., USA) was injected subcutaneously into the plantar space of the right hind paw of all rats. Intraplantar injections were made with a Hamilton syringe and a 30-gauge hypodermic needle. The needle was inserted into the pad region of the glabrous skin and moved 6-8 mm proximal toward the tarsal region. • (5) Measurements of the pain threshold values of rat paw: Paw pressure test was conducted using the TSE Analgesia System (TSE Technical & Scientific Equipment GmbH; Bad Homburg, Germany). The TSE Analgesia System is designed to perform rapid and accurate screening of analgesic drug candidates on the normal and inflamed paw of small laboratory animals, according to the Randall-Selitto method. The data can be measured and recorded by a control unit and a computer system connected thereto. The animal's paw is placed on a plinth and is applied with an increasing pressure generated from the tip of a sensor. The applied pressure is measured. The sensor is made from smooth plastic to prevent the paw from being injured when the animal withdraws its paw suddenly. To start the test, a foot switch is pressed and the sensor is lowered rapidly until it contacts the rat's paw. Thereafter, the sensor is lowered in small steps until the pain threshold is reached, at which time the tested animal (rat) starts to move vigorously and tries to withdraw its paw. The foot switch is then released and the sensor is raised. The value of the applied pressure measured at the pain threshold is shown on the display and simultaneously delivered to the computer system, which is installed with a software system capable of transferring the measured data into Excel format, which can be used as a basis for further evaluation, e.g., statistics. The TSE Analgesia system is suitable for rats, mice and other small laboratory animals. […] To prevent tissue damage, a cutoff pressure of 350 gm was set. […] In order to keep a similar condition of carrageenin-induced paw edema and pain at each testing day, this 4-day study was accomplished by conducting four one-day studies consecutively (i.e. from day 1 to day 4). All rats received only one intramuscular injection of either ketorolac propyl ester ([…], […]) or the vehicle ([…]) at the start of study (day 1) and then (1 minute later) received intraplantar injection of carrageenin at either day 1, 2, 3, or day 4. Each rat received only one injection of carrageenin. […] A three-way analysis of variance with one-way repeated method was used to compare the differences between groups. The Bonferroni test was used as a post-hoc test to compare the differences between the medication groups and the vehicle group at each time point. […] (“*” means P<0.05 whereas “+” means P<0.01 when compared with the vehicle group). The three-way analysis of variance with one-way repeated method is a powerful statistical method which can be used to evaluate the differences among groups. […] A 4-day study was carried out. […] All rats received only one intramuscular injection of a tested analgesic drug (ketorolac or a ketorolac ester derivative, […]) or the vehicle ([…]) at the start of study (day 1) and then received intraplantar injection of carrageenin at either day 1, 2, 3, or day 4. Each rat received only one injection of carrageenin.

[5] = cited from earlier work; remark: listed apart in the source
[6] = human cadaver skin, compared with KEE; cited from earlier work
[7] = human serum, compared with KEE; cited from earlier work
[8] = cited from earlier work; remark: listed apart in the source
[9] = test system: rats intraplantarly injected with carrageenin; assay: Paw swelling (paw thickness), anti-inflammatory effect after intramuscular injection; format: in vivo, Sprague-Dawley rats; conditions: for Anti-inflammatory duration (h): in water
[10] = 30 mg (=80 μmole) given to an adult, clinical practice; cited from earlier work
[11] = compared with commercially available ketorolac (trometamole salt); cited from earlier work
[12] = 240 μmole/Kg intramuscular, oil suspension in sesame oil
[13] = 240 μmole/Kg intramuscular, in oil A (sesame oil)
[14] = 80 μmole/Kg intramuscular, in oil A (sesame oil)
[15] = 160 μmole/Kg intramuscular, in oil A (sesame oil)
[16] = 240 μmole/Kg intramuscular, in oil B (soybean oil)
[17] = 240 μmole/Kg intramuscular, in oil C (peanut oil)
[18] = 240 μmole/Kg intramuscular, in oil D (castor oil)
[19] = 240 μmole/Kg intramuscular, in oil E (cotton seed oil)
[20] = intramuscular injection of 24-240 μmole, in 0.9% saline

solubility in sesame oil (Solubility in sesame oil): 10.6 mM (≈ 2710 µg/mL)
solubility (Solubility in sesame oil; oil or lipid): 2700 µg/mL (≈ 10.6 mM)
SMILES: O=C(c1ccccc1)c1ccc2n1CCC2C(=O)O (racemic) [Ketorolac, (±)-5-benzoyl-2,3-dihydro-1H-pyrrolizine-1-carboxylic acid]
odds ratio (OR), risk of gastrointestinal bleeding compared to opioids [1]: 1.30
odds ratio (OR), risk of operative site bleeding compared to opioids [1]: 1.02
bound to plasma proteins [2]: > 99%
anti-inflammatory effect [3, 12]: failed to provide significant analgesic and antiinflamatory effects
analgesic effect [4, 12]: failed to provide significant analgesic and antiinflamatory effects
mean terminal elimination half-life (T1/2β) ([5]; healthy volunteers): about 5 hours
apparent volume of distribution (Vd) ([5]; in vivo): < 0.3 L/kg

SMILES: CN(C)C(=O)COC(=O)C1CCn2c(C(=O)c3ccccc3)ccc21 (centres unmarked) [KDAE, ketorolac [(N,N-dimethylamino)carbonyl]methyl ester]
skin flux [6]: relatively higher skin flux
enzymatic hydrolysis to liberate the parent drug [7]: faster enzymatic hydrolysis

SMILES: O=C(c1ccccc1)c1ccc2n1CCC2C(=O)OCc1ccccc1 (centres unmarked) [Ketorolac benzyl ester]
Anti-inflammatory duration [3, 13]: 56 h
Analgesic duration [4, 13]: 56 h

SMILES: CCCCCCCCCCCCCCCCOC(=O)C1CCn2c(C(=O)c3ccccc3)ccc21 (centres unmarked) [Ketorolac cetyl ester]
Anti-inflammatory duration [3, 13]: 78 h
Analgesic duration [4, 13]: 74 h

SMILES: CCCCCCCCCCOC(=O)C1CCn2c(C(=O)c3ccccc3)ccc21 (centres unmarked) [Ketorolac decyl ester]
Anti-inflammatory duration [3, 13]: 76 h
Analgesic duration [4, 13]: 76 h

SMILES: CCCCCCCOC(=O)C1CCn2c(C(=O)c3ccccc3)ccc21 (centres unmarked) [Ketorolac heptyl ester]
Anti-inflammatory duration [3, 13]: 74 h
Analgesic duration [4, 13]: 74 h

SMILES: CCCCCOC(=O)C1CCn2c(C(=O)c3ccccc3)ccc21 (centres unmarked) [Ketorolac pentyl ester]
Anti-inflammatory duration [3, 13]: 56 h
Analgesic duration [4, 13]: 56 h

SMILES: CCCOC(=O)C1CCn2c(C(=O)c3ccccc3)ccc21 (centres unmarked) [Ketorolac propyl ester]
permeation rate of ketorolac in rat skin (maximum) [8]: 46.61 nmole/cm^2/h
Anti-inflammatory duration [3, 14]: 6 h
Anti-inflammatory duration [3, 15]: 30 h
Anti-inflammatory duration [3, 13]: 54 h
Anti-inflammatory duration [3, 16]: 54 h
Anti-inflammatory duration [3, 17]: 56 h
Anti-inflammatory duration [3, 18]: 56 h
Anti-inflammatory duration [3, 19]: 78 h
Analgesic duration [4, 14]: 6 h
Analgesic duration [4, 15]: 28 h
Analgesic duration [4, 13]: 54 h
Analgesic duration (h) [4, 16]: 56, 56 h
Analgesic duration (h) [4, 17]: 56, 56 h
Analgesic duration [4, 18]: 56 h
Analgesic duration [4, 19]: 78 h

SMILES: CC(C)(C)OC(=O)C1CCn2c(C(=O)c3ccccc3)ccc21 (centres unmarked) [Ketorolac tert-butyl ester]
Anti-inflammatory duration [3, 13]: 56 h
Analgesic duration [4, 13]: 56 h

SMILES: NC(CO)(CO)CO.O=C(c1ccccc1)c1ccc2n1CCC2C(=O)O (centres unmarked) [Ketorolac tromethamine, ketorolac tromethamine, reference compound]
Anti-inflammatory duration (h) ([9]; 24 μmole/Kg intramuscular): 8, 8, 8 h
Anti-inflammatory duration (h) ([9]; 80 μmole/Kg intramuscular): 8, 8, 8 h
Anti-inflammatory duration (h) ([9]; 240 μmole/Kg intramuscular): 8, 8, 8 h
duration of significant anti-inflammatory effects (paw swelling) [9, 20]: 8 h
duration of action [10]: 6 to 8 h
Analgesic duration ([4]; 24 μmole/Kg intramuscular, in water): 6 h
Analgesic duration ([4]; 80 μmole/Kg intramuscular, in water): 6 h
Analgesic duration ([4]; 240 μmole/Kg intramuscular, in water): 8 h
duration of action ([4]; intramuscular injection 30 mg/kg in rats): 6 to 8 h
duration of significant analgesic effects (pain threshold of paw) [4, 20]: 6 to 8 h

SMILES: CCN(CC)CCOC(=O)C1CCn2c(C(=O)c3ccccc3)ccc21.O=C(O)/C=C\C(=O)O (centres unmarked) [maleate salt of 2-(diethylamino)ethyl ester of ketorolac]
undesired side effects (gastrointestinal irritation and ulceration) [11]: less undesired side effects

SMILES: O=C(O)C(=O)O.O=C(c1ccccc1)c1ccc2n1CCC2C(=O)OCCN1CCCC1 (centres unmarked) [oxalate salt of 2-(1-pyrrolidinyl)ethylester of ketorolac]
undesired side effects (gastrointestinal irritation and ulceration) [11]: less undesired side effects
